According to PubChem BioAssay AID1949 (Southern Research Institute, 2009):
Converted amounts (≈) assume the structure as drawn. Inconclusive results are not listed. The source made the active and inactive calls. No rule for the calls is given here.

Each compound was assayed on M. tuberculosis H37Rv growth inhibition (assay: Mycobacterium tuberculosis H37Rv growth inhibition, cell based, confirmatory dose response (AID 1949);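 also: bacteria grown 7 days with compound before Alamar blue readout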).

First: O=[N+]([O-])/C=C/c1ccc(-c2ccc(F)cc2)o1
Second: CC(=O)Oc1cccc2ccc(/C=C/c3ccc(F)cc3)nc12
The IC50 of the first is higher: 10.1 µg/mL (≈ 43.3 µM) for the first, < 0.1 µg/mL for the second.

Compared with `O=C(CC12CC3CC(CC(C3)C1)C2)Nc1cccc(Cl)c1`, `Cc1cnc(Nc2cccc(Cl)c2)s1` is 4.3-fold higher in IC50: 3.34 µg/mL (≈ 11 µM) for the first, 14.3 µg/mL (≈ 63.7 µM) for the second.

Compared with `Cc1ccc(NC(=S)c2ccccn2)cc1`, `Cc1ccc(NC(=S)c2ccccn2)c(C)c1` is 4.3-fold higher in IC50: 0.99 µg/mL (≈ 4.34 µM) for the first, 4.22 µg/mL (≈ 17.4 µM) for the second.

Going from `O=C(CSc1nnc(-c2ccccc2)o1)Nc1ccc2ccccc2c1` to `O=C(CS(=O)(=O)c1ccc2ccccc2c1)Nc1ccccc1Cl`, the IC50 rises from 1.02 µg/mL (≈ 2.82 µM) to 4.48 µg/mL (≈ 12.5 µM) (4.4-fold).

Going from `Cc1ccc2nc(-c3ccc(N/C(N)=N\c4nc(C)cc(C)n4)cc3)sc2c1` to `Cc1cc(C)nc(/N=C(/N)Nc2cc(Oc3ccccc3)ccc2Cl)n1`, the IC50 falls from 25.7 µg/mL (≈ 66.2 µM) to 4.87 µg/mL (≈ 13.2 µM) (5.3-fold).

First: Cc1ccc(NC(=O)C(Cl)Cl)cc1[N+](=O)[O-]
Second: Cc1ccc([N+](=O)[O-])cc1NC(=O)c1cc(Cl)ccc1O
The IC50 of the first is 14-fold lower: 2.18 µg/mL (≈ 8.29 µM) for the first, 29.7 µg/mL (≈ 96.8 µM) for the second.

`COc1ccccc1C(=O)NNC(=S)NC(=O)c1ccc(-c2ccccc2)cc1` and `O=C(Nc1nc(-c2ccccc2)c(-c2ccccc2)o1)c1ccc(F)cc1` cannot be ordered by IC50: < 0.1 µg/mL for the first, < 0.1 µg/mL for the second.

`O=C(CSc1ccc(F)cc1)Nc1ccccc1F` and `CCOc1ccccc1NC(=O)COc1ccc(C(C)C)cc1` are within 1.5-fold of each other in IC50: 5.83 µg/mL (≈ 20.9 µM) for the first, 5.01 µg/mL (≈ 16 µM) for the second.

First: N#Cc1ccc(-c2ccc(OCC(=O)Nc3cccnc3)cc2)cc1
Second: COC(=O)c1ccc(NC(=O)COc2ccc(-c3ccc(C#N)cc3)cc2)cc1
The IC50 of the first is lower: < 0.1 µg/mL for the first, 0.41 µg/mL (≈ 1.06 µM) for the second.

First: COc1cccc(N2CCN(Cc3nc(N)nc(Nc4ccc(C)c(Cl)c4)n3)CC2)c1
Second: Cc1ccc(Cl)cc1N1CCN(CC(O)COCC2COc3ccccc3O2)CC1 (centres undefined)
The IC50 of the first is 3.6-fold lower: 1.45 µg/mL (≈ 3.3 µM) for the first, 5.17 µg/mL (≈ 11.9 µM) for the second.

`CC12CCC(C(=O)Nc3ccc(OC(F)(F)F)cc3)(CC1=O)C2(C)C` (centres undefined) and `CC(C)c1ccc(OCC(=O)Nc2nc(C(C)(C)C)cs2)cc1` are within 1.5-fold of each other in IC50: 3.09 µg/mL (≈ 8.7 µM) for the first, 3.87 µg/mL (≈ 11.6 µM) for the second.

Going from `Cc1ccc(CSCC(=O)Nc2ccc(Cl)c(Cl)c2)cc1` to `COC(=O)COc1cccc(NC(=O)c2ccc(Cl)cc2)c1`, the IC50 falls from 3.06 µg/mL (≈ 8.99 µM) to 0.21 µg/mL (≈ 0.657 µM) (15-fold).

Going from `c1ccc(CN2CCN(CCCOc3cccc4ccccc34)CC2)cc1` to `CCC(C(=O)O/N=C(\N)Cc1cccc2ccccc12)c1ccccc1` (centres undefined), the IC50 rises from 4.68 µg/mL (≈ 13 µM) to 10.1 µg/mL (≈ 29.2 µM) (2.2-fold).

First: CC(C)OC(=O)CSc1nnc(-c2ccc(N(C)C)cc2)o1
Second: CCOC(=O)Cn1nnc(-c2ccc(OCc3ccccc3F)cc2)n1
The IC50 of the first is lower: < 0.1 µg/mL for the first, 0.28 µg/mL (≈ 0.786 µM) for the second.

Going from `Cn1nnc(NC(=O)COc2ccc(C3CCCCC3)cc2)n1` to `CCOc1ccc(NCCC(=O)c2cccs2)cc1`, the IC50 falls from 2.85 µg/mL (≈ 9.04 µM) to 0.86 µg/mL (≈ 3.12 µM) (3.3-fold).

`COc1cc(C=O)ccc1OC(=O)c1cccs1` and `O=C(CCNc1ccc(Cc2ccncc2)cc1)c1cccs1` are within 1.5-fold of each other in IC50: 4.13 µg/mL (≈ 15.7 µM) for the first, 5.83 µg/mL (≈ 18.1 µM) for the second.

`Cc1ccccc1Nc1nc(NCc2ccco2)c2ccccc2n1` and `CC(Nc1nc(N2CCCCC2)nc2ccccc12)c1ccccc1` (centres undefined) are within 1.5-fold of each other in IC50: 2.64 µg/mL (≈ 7.99 µM) for the first, 2.29 µg/mL (≈ 6.89 µM) for the second.

Going from `CCn1cc(C(=O)O)c(=O)c2cc(F)c(N3CCN(C(=S)Nc4ccc(Cl)cc4)CC3)cc21` to `CC(C)(C)c1cc(Cl)c(O)c(NC(=S)NC(=O)c2cccc3ccccc23)c1`, the IC50 falls from 24.1 µg/mL (≈ 49.3 µM) to < 0.1 µg/mL.

First: O=[N+]([O-])c1ccc(NCCNc2nc3ccccc3nc2N2CCOCC2)cc1
Second: O=C(NC(Nc1ccc([N+](=O)[O-])cc1)C(Cl)(Cl)Cl)c1cccc(I)c1 (centres undefined)
The IC50 of the first is 4.3-fold lower: 1.64 µg/mL (≈ 4.16 µM) for the first, 7.08 µg/mL (≈ 13.8 µM) for the second.

`COc1ccc(Cc2nn3c(-c4ccccc4)nnc3s2)cc1` and `CCOC(=O)Cn1cc(/C=C(/C#N)c2nc3ccc(OC)cc3[nH]2)c2ccccc21` are within 1.5-fold of each other in IC50: 0.63 µg/mL (≈ 1.95 µM) for the first, 0.74 µg/mL (≈ 1.85 µM) for the second.

`Clc1cc(Br)ccc1OCCCCn1ccnc1` and `CCC(C)c1ccc(OCCCCn2ccnc2)cc1` (centres undefined) are within 1.5-fold of each other in IC50: 1.11 µg/mL (≈ 3.37 µM) for the first, 1.12 µg/mL (≈ 4.11 µM) for the second.

Compared with `O=C(CCN1CCC(c2ccccc2)C1)c1cccs1` (centres undefined), `O=C(NCc1ccc2c(c1)OCO2)c1cnn2c1NC(c1cccs1)CC2C(F)(F)F` (centres undefined) is 88-fold lower in IC50: 11.5 µg/mL (≈ 40.2 µM) for the first, 0.13 µg/mL (≈ 0.289 µM) for the second.

First: CCCCNCCCCCOc1ccc(Cl)cc1Cl
Second: FC(F)(F)c1cccc(NC(=S)Nc2cccc(Cl)c2)c1
The IC50 of the first is 3.2-fold lower: 4.18 µg/mL (≈ 13.7 µM) for the first, 13.5 µg/mL (≈ 40.9 µM) for the second.

Compared with `COc1ccc(C2CC(=O)Nc3ccc4ccccc4c32)c(I)c1O` (centres undefined), `Cc1ccnc(N2C(=O)c3cccc4c([N+](=O)[O-])ccc(c34)C2=O)c1` is 2.5-fold lower in IC50: 3.48 µg/mL (≈ 7.82 µM) for the first, 1.4 µg/mL (≈ 4.2 µM) for the second.

Compared with `c1ccc(Nc2nc(Nc3ccccc3)nc(N3CCNCC3)n2)cc1`, `CC(=O)Nc1ccc2cccc(O)c2n1` is 4.2-fold lower in IC50: 3.99 µg/mL (≈ 11.5 µM) for the first, 0.96 µg/mL (≈ 4.75 µM) for the second.

First: Nc1cc(Oc2ccc(O)c(N)c2)ccc1O
Second: Cc1ccc(C2=CC(c3cccc([N+](=O)[O-])c3)n3nnnc3N2)cc1C (centres undefined)
The IC50 of the first is 2-fold lower: 6.13 µg/mL (≈ 26.4 µM) for the first, 12.2 µg/mL (≈ 35 µM) for the second.

With `COCCCN1C(=O)c2cccc3c([N+](=O)[O-])ccc(c23)C1=O` the IC50 was 15.3 µg/mL (≈ 48.7 µM).

In the case of `COC(=O)CSc1[nH]c2ccc(Br)cc2c1[N+](=O)[O-]`, the IC50 is reported as > 50 µg/mL (inactive).
With `CN=c1c([N+](=O)[O-])nn(-c2ccccc2)n1O` the IC50 was > 50 µg/mL (inactive).
For `CC(C)(C)OC(=O)COc1cc2oc(=O)cc(-c3ccccc3)c2cc1Cl`, the IC50 was > 50 µg/mL (inactive).
In the case of `O=C(CSc1nnc(-c2cccnc2)o1)c1ccc(Oc2ccccc2)cc1`, the IC50 is reported as > 50 µg/mL (inactive).
In the case of `COc1cc(NC(=S)N2CCN(C)CC2)cc(OC)c1`, the IC50 is reported as > 50 µg/mL (inactive).
For `CCOC(=O)C(C)Oc1ccc2c(=O)c(-c3ccc(Cl)cc3)coc2c1` (centres undefined), the IC50 was > 50 µg/mL (inactive).
